pIC50: −log10 of the molar value. Counter-ions that a name gives are not always drawn. Like-named read-outs stand apart in the source and are kept apart here.
Tests used:
JCV strain Mad1/SVEΔ = assay: microbe, parasite or virus in culture; assay type: cell-based, JC polyomavirus (JCV); conditions: for inhibition at 10 µM / pIC50: JC polyomavirus
Experimental: (§1) SV40 transformed glial cells were seeded in 10% FBS media. The cells were seeded at 2000 cells per well in 75 μl of media per well. On day 2, the media was removed and replaced by 35 μl of a 1× concentrated drug aliquot combined with a 100× diluted JCV Turbo aliquot in 35 μl of 2% FBS media (JCV Turbo is a hybrid Mad-1/SVEΔ virus constructed by insertion of the regulatory region of SV40 into the regulatory region of the Mad-1 strain of JCV (Mad-1/SVE), Vacante et al., Virology 1989, 170: 353-361). The cells were incubated for an hour, after which another 65 uL aliquot of 1× concentrated drug in 2% FBS was added. On day 5 the cells were stained with DAPI (for total cell number) and with a mouse monoclonal antibody against SV40 VP1, which cross reacts with the JCV VP1 protein. […] The information is tabulated as % inhibition (as measured by the number and percentage of JCV positive cells).
(§2) JCV Infectivity Assay: SVG-A cells were seeded at 2,000 cells/well/0.075 ml of culture media in 96 flat-bottom well plate (Corning, N.Y.). The next day compounds were prepared in assay medium (2% heat-inactivated fetal bovine serum, 4 mM L-glutamine, 1×MEM). A master viral plate was prepared by mixing equal volumes of [2×] compound and [2×] diluted virus for the final 1× concentration of the compound and the virus. The plate containing cells was gently inverted and shaken to remove media. From the master plate, 0.035 ml compound/virus was added to designated wells. The cells were incubated with the compound/virus mixture for 60 minutes in a humidified 37° C. CO2 incubator. At that time final concentration of the drug in media was added to designated wells to bring the final volume up to 0.1 ml/well. The plates were incubated for an additional three days, the cells were then washed once with 1×PBS, and fixed in 2% paraformaldehyde/1×PBS for 30 minutes at room temperature. The fixative was removed and the cells were solubilized with 0.5% Triton X100 in PBS for an additional 30 minutes. Infection by Mad-1/SVEΔ virus was visualized by staining with PAB597, a monoclonal antibody against the major capsid protein VP1, the cells were incubated with 0.05 ml of PAB597 (2 μg/ml in 1×PBS) for 60 minutes at 37° C. Following a wash step with 1×PBS, primary antibody was detected with an Alexa-Fluor 488-labeled goat anti-mouse secondary antibody at 1:100 dilution in 1×PBS, cells were counterstained with DAPI at 1 μg/ml (0.05 ml/well) for 30 minutes at 37° C. Cells were washed with 1×PBS and 0.1 ml 1×PBS was added to cells. Field images of each well were acquired and analyzed using the Cellomics ArrayScan (Thermo Scientific Inc, Waltham, Mass.) using the Target Activation software. […] The cells are seeded at 4,000 cells/well/0.075 ml of culture media in 96 flat-bottom well plate (Corning). The culture media is used for the infection. The length of the infection is six to ten days (instead of the three days for SVG-A cells).
Calculations: The rate of JCV infection was calculated by normalizing the number of JCV infected cells by the total number of nucleated cells as % JCV^+ cells=((total # VP1^+ cells)/(total # DAPI^+ cells))*100%. The % of viral inhibition by a compound was calculated using a JCV infection rate instead of using total number of JCV infected cells (e.g., VP1^+ cells).

in vitro = conditions: human
Experimental: as §1, §2
(§3) The primary assay employed an SVG-A cell line and JCV Mad1/SVEΔ viral strain.

SVG-A cells = assay: Total cell number (DAPI+ events) / cytotoxicity in the JCV infectivity assay; conditions: for inhibition at 10 µM: Homo sapiens, SVG-A, read-out: % Inhibition total Cell Number @10 uM
Experimental: as §1, §2, §3

[1] = published PK data; cited from earlier work
JCV = assay: Anti-JCV activity of structural analogs (Tables 4 and 5); assay type: cell-based, JC polyomavirus (JCV)
[2] = Glial cell, read-out: % Inhibition (total #JCV+) @10 uM
[3] = SVG-A, read-out: % Inhibition (% JCV+) @10 uM
[4] = Table 4, mefloquine functional fingerprint in silico screen compounds

Row | Compound | inhibition at 10 µM (JCV strain Mad1/SVEΔ; [2]) | pIC50 (JCV strain Mad1/SVEΔ; SVG-A) | inhibition at 10 µM (JCV strain Mad1/SVEΔ; [3]) | inhibition at 10 µM (SVG-A cells) | further results
1 | COc1ccc([C@@H]2Sc3ccccc3N(CCN(C)C)C(=O)[C@@H]2OC(C)=O)cc1 [DILTIAZEM HYDROCHLORIDE] | 20% | 5.07 | 24% | -4% | CC50 at 3 days (in vitro): > 40 µM
2 | CC(=O)O[C@H]1C[C@@]2(C)[C@@H](C[C@@H](O)[C@H]3[C@@]4(C)CC[C@@H](O)[C@@H](C)[C@@H]4CC[C@@]32C)/C1=C(\CCC=C(C)C)C(=O)O [FUSIDIC ACID] | 39% | 5.07 | 40% | -2% | plasma Cmax [1]: 10000 to 90000 ng/mL
3 | Clc1ccc(COC(Cn2ccnc2)c2ccc(Cl)cc2Cl)c(Cl)c1 (stereo not shown) [MICONAZOLE NITRATE] | 46% |  | 42% | 7% | CC50 (SVG-A cells; read-out: TC50, inhibition of total cell numbers by 50%): 22.9 µM; plasma Cmax [1]: 10 ng/mL
4 | Nc1nc(OCC2CCCCC2)c2[nH]cnc2n1 [O6-Cyclohexylmethylguanine] |  |  |  |  | anti-JCV activity (JCV; [4]): Yes
5 | CC1=C(/C=C/C(C)=C/C=C/C(C)=C\C(=O)O)C(C)(C)CCC1 [ISOTRETINOIN] | 39% | 5.36 | 28% | 15% | plasma Cmax [1]: 1100 ng/mL
6 | CC[C@@H](CO)Nc1nc(NCc2ccccc2)c2ncn(C(C)C)c2n1 (single isomer, unassigned) [ROSCOVITINE, (S)-ISOMER] |  |  |  |  | anti-JCV activity (JCV; [4]): Yes
7 | Cc1nccc2c1[nH]c1ccccc12 [HARMANE] | 24% | 4.84 | 22% | 4% | CC50 (in vitro): > 40 µM
8 | Nc1nc2c(ncn2[C@@H]2O[C@H](CO)[C@@H](O)[C@H]2O)c(=O)[nH]1 [GUANOSINE] |  |  |  |  | anti-JCV activity (JCV; [4]): No
9 | CC(=O)O[C@H]1CC[C@H]2[C@@H]3CCC4=C[C@@H](O)CC[C@@H]4[C@H]3CC[C@]12C [4-ESTREN-3-BETA, 17-BETA-DIOL 17-ACETATE] |  |  |  |  | anti-JCV activity (JCV; Table 5, fusidic acid analogs): Yes
10 | CC(=O)OC(C)C1CCC2C3CC(O)C4CC(O)CCC4(C)C3CCC12C (stereo not drawn) [5-BETA-PREGNAN-3-ALPHA, 6-ALPHA, 20-BETA-TRIOL 20-ACETATE] |  |  |  |  | anti-JCV activity (JCV; Table 5, fusidic acid analogs): Yes
11 | CC(=O)OC(C)C1CCC2C3CCC4=CC(O)CCC4(C)C3CCC12C (stereo not drawn) [4-PREGNEN-3-BETA, 20-BETA-DIOL 20-ACETATE] |  |  |  |  | anti-JCV activity (JCV; Table 5, fusidic acid analogs): Yes
12 | Nc1nccc2c1ncn2[C@@H]1O[C@H](CO)[C@@H](O)[C@H]1O [3-DEAZAADENOSINE] |  |  |  |  | anti-JCV activity (JCV; [4]): Yes
13 | Nc1ncnc2c1ncn2[C@@H]1O[C@H](CO)[C@@H](O)[C@H]1O [ADENOSINE] |  |  |  |  | anti-JCV activity (JCV; [4]): No
14 | CC(=O)OC(C)C1CCC2C3CC(O)C4CC(O)CCC4(C)C3CCC12C (stereo not drawn) [5-BETA-PREGNAN-3-ALPHA, 6-ALPHA, 20-ALPHA-TRIOL 20-ACETATE] |  |  |  |  | anti-JCV activity (JCV; Table 5, fusidic acid analogs): No
15 | POLYMYXIN B SULFATE |  |  |  |  | % Inhibition (total #JCV+) @10 uM (JCV strain Mad1/SVEΔ; 10 uM, SV40 transformed glial cells, Mad-1/SVEΔ JCV): 36%; % Inhibition (% JCV+) @10 uM (JCV strain Mad1/SVEΔ; 10 uM, infection rate, JCV+ cells normalised to total cells): 41%; % Inhibition total Cell Number @10 uM (SVG-A cells; 10 uM, cytotoxicity, DAPI count): −8%
16 | CC/C(=C(/CC)c1ccc(O)cc1)c1ccc(O)cc1 [DIETHYLSTILBESTROL] | 42% |  | 29% | 18% | 
17 | Nc1ccn(C[C@@H](CO)OCP(=O)(O)O)c(=O)n1 [cidofovir] |  |  |  |  | percent inhibition of infection rate (% JCV+ cells), in words (JCV strain Mad1/SVEΔ; FIG. 3D, SVG-A cells): not significant; inhibition of total number of cells in culture, in words (SVG-A cells): inhibited the total number of cells in culture to the same degree
18 | Cc1c(Nc2ncccc2C(=O)O)cccc1C(F)(F)F [FLUNIXIN MEGLUMINE] | 30% | 4.78 | 33% | -4% | CC50 (in vitro): 47.7 µM
19 | NCCOB(c1ccccc1)c1ccccc1 [AMINOETHOXYDIPHENYLBORANE] | 25% |  | 21% | 3% | 
20 | COc1cc([C@@H]2c3cc4c(cc3[C@H](O)[C@H]3COC(=O)[C@@H]23)OCO4)cc(OC)c1OC [PICROPODOPHYLLOTOXIN] | 19% |  | 22% | -1% | 
21 | O=C(O)Cc1ccccc1Nc1c(Cl)cccc1Cl [DICLOFENAC SODIUM] | 44% | 5.08 | 31% | 18% | CC50 (SVG-A cells; human, 3 days): 30.5 µM
22 | COc1ccc2cc(CCC(C)=O)ccc2c1 [NABUMETONE] | 20% |  | 23% | -2% | 
23 | Nc1ncnc2c1nc(Cl)n2[C@@H]1O[C@H](CO)[C@@H](O)[C@H]1O [8-CHLOROADENOSINE] |  |  |  |  | anti-JCV activity (JCV; [4]): Yes
24 | COc1cc(C)c2c(=O)c(-c3ccccc3)coc2c1 [METHOXYVONE] | 38% | 4.76 | 27% | 15% | CC50 (in vitro): > 40 µM
25 | CCC(=O)Nc1ccc(Cl)c(Cl)c1 [PROPANIL] | 12% | 5.11 | 21% | -12% | CC50 at 3 days (in vitro): > 40 µM
26 | CC(=O)OC1CC2CC(O)CCC2(C)C2CC(OC(C)=O)C3(C)C(C(C)CC(=O)O)CCC3C12 (stereo not drawn) [23-NOR-5-BETA-CHOLANIC ACID-3-ALPHA, 7-ALPHA, 12-ALPHA-TRIOL 7,12-DIACETATE] |  |  |  |  | anti-JCV activity (JCV; Table 5, fusidic acid analogs): No

From patent US9233107B2, “Compositions and methods for the treatment of progressive multifocal leukoencephalopathy (PML)” (Biogen MA Inc., priority 2007, dated 2016)
